# Measurements from the supplement of paper PMC9663587.
# Columns and labels:
# Test in all cases: area over the GR curve, 72 h; higher = more effect;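 note: Dye Drop or Deep Dye Drop imaging of viable cells in 384-well plates (Hoechst nuclei, LIVE/DEAD dye), nine half-log doses, GR normalized to DMSO controls and time-zero plates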
# BT549 = test system: BT549
# EVSAT = test system: EVSAT
# HCC1954 = test system: HCC1954
# MCF12A = test system: MCF12A
# MDAMB175VII = test system: MDAMB175VII
# MDAMB231 = test system: MDAMB231
# MDAMB436 = test system: MDAMB436
# MDAMB453 = test system: MDAMB453
# PDXHCI002 = test system: PDXHCI002
# SUM159 = test system: SUM159
# T47D = test system: T47D
# UACC812 = test system: UACC812
SMILES,area over the GR curve (BT549),area over the GR curve (EVSAT),area over the GR curve (HCC1954),area over the GR curve (MCF12A),area over the GR curve (MDAMB175VII),area over the GR curve (MDAMB231),area over the GR curve (MDAMB436),area over the GR curve (MDAMB453),area over the GR curve (PDXHCI002),area over the GR curve (SUM159),area over the GR curve (T47D),area over the GR curve (UACC812),area over the GR curve (BT549; main component drawn),area over the GR curve (HCC1954; main component drawn),area over the GR curve (MDAMB231; main component drawn),area over the GR curve (MDAMB436; main component drawn),area over the GR curve (MDAMB453; main component drawn),area over the GR curve (PDXHCI002; main component drawn),area over the GR curve (SUM159; main component drawn),area over the GR curve (T47D; main component drawn)
C[C@@H]1COCCN1c1cc(C2([S@](C)(=N)=O)CC2)nc(-c2cc[nH]c3nccc2-3)n1 [AZD6738] (max 10 µM),0.0821 GR,-0.0225 GR,-0.0136 GR,0.192 GR,0.063 GR,-0.0233 GR,0.0381 GR,0.0984 GR,0.0278 GR,0.0107 GR,-0.205 GR,-0.0578 GR,,,,,,,,
NC(=O)Nc1cc(-c2cccc(F)c2)sc1C(=O)N[C@H]1CCCNC1 [AZD7762] (max 10 µM),0.601 GR,0.253 GR,0.515 GR,0.521 GR,0.816 GR,0.527 GR,0.65 GR,0.853 GR,0.694 GR,0.277 GR,-0.0211 GR,1.02 GR,,,,,,,,
Cc1nc(NC(=O)N2CCC[C@H]2C(N)=O)sc1-c1ccnc(C(C)(C)C(F)(F)F)c1 [Alpelisib/BYL719] (max 10 µM),0.0322 GR,0.0161 GR,0.264 GR,0.0144 GR,0.563 GR,0.0895 GR,0.0552 GR,0.335 GR,0.063 GR,0.056 GR,0.455 GR,0.381 GR,,,,,,,,
CN(C)C/C=C/C(=O)Nc1ccc(O[C@@H]2CCC[C@@H](Nc3ncc(Cl)c(-c4c[nH]c5ccccc45)n3)C2)cc1 [BSJ-01-175] (max 10 µM),0.433 GR,0.637 GR,0.66 GR,0.146 GR,1.21 GR,0.991 GR,0.82 GR,1.08 GR,0.906 GR,0.646 GR,0.537 GR,0.571 GR,,,,,,,,
CC(=O)c1c(C)c2cnc(Nc3ccc(N4CCN(CCOCCOCCOCCNC(=O)COc5cccc6c5C(=O)N(C5CCC(=O)NC5=O)C6=O)CC4)cn3)nc2n(C2CCCC2)c1=O (stereo not drawn) [BSJ-03-123] (max 10 µM),0.116 GR,0.194 GR,0.33 GR,0.136 GR,0.446 GR,0.353 GR,0.0446 GR,0.267 GR,0.246 GR,0.265 GR,0.746 GR,0.367 GR,,,,,,,,
CC(C)Nc1cc(-c2c[nH]c(C(=O)N[C@H](CO)c3cccc(Cl)c3)c2)c(Cl)cn1 [BVD523] (max 10 µM),0.109 GR,0.0496 GR,0.242 GR,0.111 GR,0.472 GR,0.232 GR,0.0948 GR,0.0704 GR,0.168 GR,0.254 GR,0.185 GR,0.305 GR,,,,,,,,
Cc1c(N)nc([C@H](CC(N)=O)NC[C@H](N)C(N)=O)nc1C(=O)N[C@H](C(=O)N[C@H](C)[C@@H](O)[C@H](C)C(=O)N[C@H](C(=O)NCCc1nc(-c2nc(C(=O)NCCC[S+](C)C)cs2)cs1)[C@@H](C)O)[C@@H](OC1OC(CO)C(O)C(O)C1OC1OC(CO)C(O)C(OC(N)=O)C1O)c1cnc[nH]1 (stereo partly drawn) [Bleomycin] (max 10 µM),,,,,,,,,,,,,0.467 GR,0.617 GR,0.132 GR,0.309 GR,0.198 GR,0.272 GR,0.463 GR,0.462 GR
Nc1cc(C(F)(F)F)c(-c2cc(N3CCOCC3)nc(N3CCOCC3)n2)cn1 [Buparlisib/NVP-BKM120] (max 10 µM),0.248 GR,0.322 GR,0.39 GR,0.168 GR,0.705 GR,0.275 GR,0.292 GR,0.331 GR,0.229 GR,0.184 GR,0.482 GR,0.806 GR,,,,,,,,
COc1cc2nccc(Oc3ccc(NC(=O)C4(C(=O)Nc5ccc(F)cc5)CC4)cc3)c2cc1OC [Cabozantinib] (max 10 µM),0.0035 GR,0.0366 GR,-0.0867 GR,-0.0141 GR,-0.124 GR,0.141 GR,0.0531 GR,-0.0455 GR,0.0362 GR,0.059 GR,0.0578 GR,-0.092 GR,,,,,,,,
COc1cc2c(Oc3ccc4[nH]c(C)cc4c3F)ncnc2cc1OCCCN1CCCC1 [Cediranib/AZD2171] (max 10 µM),0.15 GR,0.064 GR,0.0591 GR,-0.0002 GR,0.193 GR,0.116 GR,0.161 GR,0.126 GR,0.255 GR,0.0309 GR,0.122 GR,0.342 GR,,,,,,,,
Cc1cc(Nc2ncc(Cl)c(Nc3ccccc3S(=O)(=O)C(C)C)n2)c(OC(C)C)cc1C1CCNCC1 [Ceritinib/LDK378] (max 10 µM),0.141 GR,0.0642 GR,0.124 GR,0.0596 GR,-0.0348 GR,0.344 GR,0.415 GR,0.461 GR,0.503 GR,0.213 GR,0.312 GR,0.085 GR,,,,,,,,
N.N.[Cl][Pt][Cl] [Cisplatin] (max 10 µM),0.283 GR,,0.275 GR,,,0.15 GR,0.36 GR,0.0713 GR,0.201 GR,0.137 GR,0.214 GR,,,,,,,,,
Cc1nc(Nc2ncc(C(=O)Nc3c(C)cccc3Cl)s2)cc(N2CCN(CCO)CC2)n1 [Dasatinib] (max 10 µM),0.237 GR,0.379 GR,0.189 GR,0.42 GR,0.972 GR,0.647 GR,0.102 GR,0.0776 GR,0.376 GR,0.0885 GR,0.193 GR,1.15 GR,,,,,,,,
COc1cccc2c1C(=O)c1c(O)c3c(c(O)c1C2=O)C[C@@](O)(C(=O)CO)C[C@@H]3O[C@H]1C[C@H](N)[C@H](O)[C@H](C)O1 [Doxorubicin] (max 3.162 µM),0.76 GR,0.642 GR,0.73 GR,0.601 GR,0.908 GR,0.818 GR,0.706 GR,0.786 GR,0.969 GR,0.624 GR,0.919 GR,1.18 GR,,,,,,,,
COc1cc([C@@H]2c3cc4c(cc3[C@@H](O[C@@H]3O[C@@H]5CO[C@@H](C)O[C@H]5[C@H](O)[C@H]3O)[C@H]3COC(=O)[C@H]23)OCO4)cc(OC)c1O [Etoposide] (max 10 µM),0.473 GR,,0.501 GR,,,0.298 GR,0.434 GR,0.362 GR,0.488 GR,0.413 GR,0.666 GR,,,,,,,,,
CO[C@H]1C[C@@H]2CC[C@@H](C)[C@@](O)(O2)C(=O)C(=O)N2CCCC[C@H]2C(=O)O[C@H]([C@H](C)C[C@@H]2CC[C@@H](OCCO)[C@H](OC)C2)CC(=O)[C@H](C)/C=C(\C)[C@@H](O)[C@@H](OC)C(=O)[C@H](C)C[C@H](C)/C=C/C=C/C=C/1C [Everolimus] (max 10 µM),0.439 GR,0.551 GR,0.653 GR,0.273 GR,1.14 GR,0.225 GR,0.314 GR,0.888 GR,-0.0896 GR,0.108 GR,0.616 GR,0.984 GR,,,,,,,,
CC[C@@]1(O)C(=O)OCc2c1cc1n(c2=O)Cc2cc3c(CN(C)C)c(O)ccc3nc2-1 [Topotecan] (max 10 µM),0.851 GR,,0.869 GR,,,0.704 GR,0.877 GR,0.926 GR,1.02 GR,0.864 GR,0.959 GR,,,,,,,,,
